Assay results from PMC9127186, “Molecular Basis Underlying Hepatobiliary and Renal Excretion of Phenolic Acids of Salvia miltiorrhiza Roots (Danshen)” (Frontiers in Pharmacology, 2022).

Tests used:
[1] = biological target: T1, rat Oat2 (Rattus norvegicus, UniProt Q5RLM2); test: Cellular transport assay, HEK-293 cells expressing rat Oat2; details: for TransportTC/TransportMC ratio (net transport ratio): 10 min; for K m: rat hepatic sinusoidal uptake Oat2 (also renal apical), 5 min incubation, concentrations in Table 1
T1 sequence (Q5RLM2 1-535): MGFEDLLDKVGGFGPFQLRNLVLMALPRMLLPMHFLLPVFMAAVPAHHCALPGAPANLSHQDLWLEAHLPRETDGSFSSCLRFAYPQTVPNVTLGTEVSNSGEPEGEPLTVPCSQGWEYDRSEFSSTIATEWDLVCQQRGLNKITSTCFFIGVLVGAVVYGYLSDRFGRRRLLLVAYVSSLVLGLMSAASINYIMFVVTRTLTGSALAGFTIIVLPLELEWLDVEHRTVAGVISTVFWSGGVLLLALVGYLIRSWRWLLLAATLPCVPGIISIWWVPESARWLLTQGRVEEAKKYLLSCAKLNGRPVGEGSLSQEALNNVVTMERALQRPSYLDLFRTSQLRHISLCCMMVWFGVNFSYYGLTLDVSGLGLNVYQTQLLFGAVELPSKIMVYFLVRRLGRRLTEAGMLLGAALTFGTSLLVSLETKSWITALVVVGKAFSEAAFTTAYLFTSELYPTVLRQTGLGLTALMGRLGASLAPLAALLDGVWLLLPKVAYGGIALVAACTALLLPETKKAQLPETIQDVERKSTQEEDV

[2] = biological target: T2, OATP1B3 (Homo sapiens, UniProt Q9NPD5); test: Cellular transport assay, HEK-293 cells expressing human OATP1B3; details: for TransportTC/TransportMC ratio (net transport ratio): 10 min; for K m / V max: 5 min incubation, concentrations in Table 1
T2 sequence (Q9NPD5 1-702): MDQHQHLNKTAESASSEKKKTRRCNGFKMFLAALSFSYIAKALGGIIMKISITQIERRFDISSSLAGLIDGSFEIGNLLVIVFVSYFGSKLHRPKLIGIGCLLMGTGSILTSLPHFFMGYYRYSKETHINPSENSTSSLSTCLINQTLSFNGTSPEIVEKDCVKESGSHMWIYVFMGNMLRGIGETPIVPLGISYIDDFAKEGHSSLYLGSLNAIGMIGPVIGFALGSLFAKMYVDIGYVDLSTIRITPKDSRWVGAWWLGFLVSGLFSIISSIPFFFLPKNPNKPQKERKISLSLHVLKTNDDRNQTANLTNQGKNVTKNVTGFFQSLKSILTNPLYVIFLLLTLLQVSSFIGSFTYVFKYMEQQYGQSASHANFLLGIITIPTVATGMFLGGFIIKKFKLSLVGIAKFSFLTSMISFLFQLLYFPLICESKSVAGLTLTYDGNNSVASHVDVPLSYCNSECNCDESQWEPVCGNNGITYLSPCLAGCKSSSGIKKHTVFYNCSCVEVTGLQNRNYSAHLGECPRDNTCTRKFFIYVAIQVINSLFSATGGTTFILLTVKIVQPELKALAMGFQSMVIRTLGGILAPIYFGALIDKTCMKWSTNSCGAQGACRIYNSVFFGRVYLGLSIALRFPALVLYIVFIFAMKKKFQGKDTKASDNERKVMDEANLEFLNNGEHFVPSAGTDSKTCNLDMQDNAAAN

[3] = biological target: T3, human OATP1B1 (Homo sapiens, UniProt Q9Y6L6); test: Cellular transport assay, HEK-293 cells expressing human OATP1B1; details: for TransportTC/TransportMC ratio (net transport ratio): 10 min
T3 sequence (Q9Y6L6 1-691): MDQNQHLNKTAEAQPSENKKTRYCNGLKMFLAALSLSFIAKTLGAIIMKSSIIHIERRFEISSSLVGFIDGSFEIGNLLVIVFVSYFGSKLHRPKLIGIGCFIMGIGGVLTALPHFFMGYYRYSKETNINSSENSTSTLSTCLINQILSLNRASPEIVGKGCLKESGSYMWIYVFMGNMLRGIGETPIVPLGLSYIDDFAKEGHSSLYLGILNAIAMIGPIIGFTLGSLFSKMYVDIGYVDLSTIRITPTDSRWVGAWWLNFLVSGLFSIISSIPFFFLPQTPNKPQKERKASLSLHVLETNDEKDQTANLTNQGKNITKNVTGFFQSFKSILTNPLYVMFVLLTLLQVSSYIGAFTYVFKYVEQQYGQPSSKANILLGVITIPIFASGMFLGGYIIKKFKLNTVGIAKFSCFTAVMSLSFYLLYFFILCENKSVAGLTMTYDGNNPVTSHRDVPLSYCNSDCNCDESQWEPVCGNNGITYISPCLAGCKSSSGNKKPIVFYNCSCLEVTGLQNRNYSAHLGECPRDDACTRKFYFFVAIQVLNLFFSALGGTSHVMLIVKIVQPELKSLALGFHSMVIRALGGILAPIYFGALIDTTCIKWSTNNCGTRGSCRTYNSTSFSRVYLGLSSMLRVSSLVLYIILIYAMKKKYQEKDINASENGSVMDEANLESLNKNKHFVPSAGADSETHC
Procedure, shortened: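 Read-out is LC/MS quantitation of Danshen compound taken up over 5 min, a window within linear uptake, by HEK-293 cells transiently expressing the transporter or carrying empty vector. Cells were used 48 h after transfection. Initial rates versus substrate concentration were fitted nonlinearly for Km and Vmax.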

[4] = Danshen phenolic acid at 100 μM final concentration, rat Oat2-transfected vs mock cells
[5] = Danshen phenolic acid at 100 μM final concentration, human OATP1B3-transfected vs mock cells
[6] = human hepatic sinusoidal uptake OATP1B3
[7] = human, HEK-293 cells expressing human OATP1B3 (vs mock cells)
[8] = Danshen phenolic acid at 100 μM final concentration, human OATP1B1-transfected vs mock cells
[9] = human hepatic sinusoidal uptake OATP1B1, 5 min incubation, concentrations in Table 1

| K m [2, 6] [µM] | V max [2, 6] [pmol/min/mg protein] | K m [3, 9] [µM] | Compound | TransportTC/TransportMC ratio (net transport ratio) [1, 4] | substrate of human OATP1B3 [2] | TransportTC/TransportMC ratio (net transport ratio) [2, 5] | substrate of human OATP1B1 [3] | TransportTC/TransportMC ratio (net transport ratio) [3, 8] | substrate of rat Oat2 [1] | K m [1] [µM] | also measured |
| --- | --- | --- | --- | --- | --- | --- | --- | --- | --- | --- | --- |
| 182 ± 26 | 9.59 ± 0.51 | 428 ± 67 | O=C(/C=C/c1ccc(O)c2c1[C@H](C(=O)O)[C@@H](c1ccc(O)c(O)c1)O2)O[C@H](Cc1ccc(O)c(O)c1)C(=O)O [Lithospermic acid, lithospermic acid] | 1.36 ± 0.33 | substrates | 8.02 ± 0.52 | substrates | 3.99 ± 0.24 |  |  | microsomal CLint [2, 7]: 0.05 µL/min/mg; microsomal CLint ([3]; human): 0.06 µL/min/mg |
|  |  |  | O=C(O)c1ccc(O)c(O)c1 [Protocatechuic acid, protocatechuic acid] | 163 ± 30 |  | 0.75 ± 0.09 |  | 0.83 ± 0.14 | substrates | 109 ± 6 | microsomal CLint ([1]; rat): 10.9 µL/min/mg |
|  |  |  | O=C(/C=C/c1ccc(O)c(O)c1)O[C@H](Cc1ccc(O)c(O)c1)C(=O)O [Rosmarinic acid, rosmarinic acid] |  | substrates |  | substrates |  | substrates | 119 ± 15 | TransportTC/TransportMC ratio (net transport ratio) ([1]; rat, 100 μM): 334 ± 18; microsomal CLint ([1]; rat, other cell line): 5.2 µL/min/mg; TransportTC/TransportMC ratio (net transport ratio) ([2]; human, 100 μM): 7.28 ± 0.58; microsomal CLint ([2]; human, other cell line): 0.09 µL/min/mg; TransportTC/TransportMC ratio (net transport ratio) ([3]; human, 100 μM): 4.00 ± 0.43; microsomal CLint ([3]; human, other cell line): 0.07 µL/min/mg |
|  |  |  | O=C(/C=C/c1ccc(O)c(O)c1/C=C/c1ccc(O)c(O)c1)O[C@H](Cc1ccc(O)c(O)c1)C(=O)O [Salvianolic acid A, salvianolic acid A] |  | not a substrate |  | not a substrate |  | not substrates |  | TransportTC/TransportMC ratio (net transport ratio) ([1]; rat, 100 μM): 1.41 ± 0.26; TransportTC/TransportMC ratio (net transport ratio) ([2]; human, 100 μM): 1.02 ± 0.31; TransportTC/TransportMC ratio (net transport ratio) ([3]; human, 100 μM): 1.21 ± 0.33 |
| 570 ± 79 | 98.5 ± 4.8 | 403 ± 85 | O=C(O)Cc1c(/C=C/C(=O)O[C@H](Cc2ccc(O)c(O)c2)C(=O)O)ccc(O)c1O [Salvianolic acid D, salvianolic acid D] | 50.5 ± 10.7 | substrates | 5.83 ± 0.49 | substrates | 5.38 ± 0.83 | substrates | 60.0 ± 7.2 | microsomal CLint ([1]; rat): 2.73 µL/min/mg; microsomal CLint [2, 7]: 0.17 µL/min/mg; microsomal CLint ([3]; human): 0.22 µL/min/mg |
|  |  |  | O=C(O)C(O)Cc1ccc(O)c(O)c1 (stereo not drawn) [Tanshinol, tanshinol] |  |  |  |  |  |  | 978 ± 123 |  |

| Compound | K m [2, 6] [µM] | V max [2, 6] [pmol/min/mg protein] | K m [3, 9] [µM] | TransportTC/TransportMC ratio (net transport ratio) [1, 4] | substrate of human OATP1B3 [2] | TransportTC/TransportMC ratio (net transport ratio) [2, 5] | substrate of human OATP1B1 [3] | TransportTC/TransportMC ratio (net transport ratio) [3, 8] | substrate of rat Oat2 [1] | K m [1] [µM] | also measured |
| --- | --- | --- | --- | --- | --- | --- | --- | --- | --- | --- | --- |
| salvianolic acid B | 13.0 ± 1.6 | 11.0 ± 0.4 | 58.9 ± 6.2 | 0.92 ± 0.22 | substrates | 16.2 ± 0.6 | substrates | 5.16 ± 1.30 |  |  | CLint [2, 6]: 0.85 μL/min/mg protein; CLint ([3]; human hepatic sinusoidal uptake OATP1B1): 0.46 μL/min/mg protein; V max [3, 9]: 28.1 ± 1.2 pmol/min/mg protein |
